Test results published in US20150072968A1, “Treating Infections with Ceftolozane/Tazobactam in Subjects Having Impaired Renal Function” (Calixa Therapeutics, Inc., priority 2013, published 2015).
Like-named read-outs stand apart in the source and are kept apart here.

How the values were obtained:
clinical = details: human, in vivo
Excerpt: CXA-201 plasma concentrations from 6 subjects with ESRD following a single dose without HD and a second dose with HD were used to develop a pPK model (Phoenix NLME, Pharsight).

[1] = Population pharmacokinetic analysis of 10 clinical studies (Example 7); assay type: in vivo, human
Excerpt: Base model development. […] Intrinsic covariates analyzed included body weight, age, gender, ethnicity, and baseline calculated CrCL). The CrCL was estimated using the Cockcroft-Gault formula: […] […] Final population PK model: evaluation and performance. […] Smaller shrinkage ≦0.2 indicates good individual estimates.

P. aeruginosa = details: neutropenic murine-thigh infection model; cited from earlier work
[2] = cited from earlier work
[3] = cited from earlier work; remark: listed apart in the source
[4] = Phase 1 single dose PK of 750 mg ceftolozane/tazobactam in severe renal impairment and ESRD on hemodialysis (Example 8); assay type: in vivo, human; details: for AUC(0-t) / Cmax / half-life / Tmax / AUC(0-inf) / clearance / Vd: both sexes, human, plasma; for Cmax: read-out: Cmax, Mean (CV %); for half-life: read-out: t1/2, Mean (CV %) (converted); for Tmax: read-out: tmax, Median (minimum, maximum); for AUC(0-inf): read-out: AUC∞, Mean (CV %); for clearance: read-out: CL, Mean (CV %) (converted); for Vd: read-out: Vss, Mean (CV %)
Description: This was a Phase 1, multicenter, prospective, open-label study of 750 mg ceftolozane/tazobactam (as CXA-201) administered IV in male and female adult subjects with severe renal impairment (estimated CLCR<30 mL/min) and subjects with end-stage renal disease (ESRD) on hemodialysis (HD). The primary objective of the study was to determine the PK profile of ceftolozane/tazobactam in subjects with severe renal impairment and subjects with ESRD on HD and to determine the effect of HD on the clearance of ceftolozane/tazobactam.
Subjects with severe renal impairment received a single IV 1-hour infusion of 750 mg ceftolozane/tazobactam on Day 1. […] Subjects in this cohort received an IV dose of 750 mg ceftolozane/tazobactam as a 1 hour infusion immediately after their first HD session on Day 1 (postdialysis, approximately 72 hours prior to the next HD session) and a second dose of ceftolozane/tazobactam approximately 2 hours before their second HD session on Day 4 of the study. Infusion of ceftolozane/tazobactam was completed approximately 1 hour before the start of HD.
Subjects in both cohorts had urine (if not anuric) and plasma samples collected for determination of levels of ceftolozane, tazobactam and the M1 metabolite of tazobactam; subjects in the ESRD on HD cohort also had dialysate fluid samples collected for PK assessment. Plasma, urine, and dialysate levels of ceftolozane, tazobactam, and its metabolite M1 collected over a prespecified interval were determined by LC/MS/MS assay.
All subjects underwent hemodialysis for 3 to 4 hours using a high-flux membrane (either 1.4, 1.8, or 1.9 m^2) on Days 1, 4, and 6 as scheduled. Average blood flow rate was 264 to 600 mL/min and average dialysis flow rate was either 600 or 800 mL/min for all subjects with ESRD.

[5] = Pharmacokinetics of ceftolozane/tazobactam in healthy volunteers; assay type: in vivo, human
[6] = Phase I PK studies in subjects with varying degrees of renal function (Example 11); assay type: in vivo, human
Excerpt: Male and female subjects, aged 18 to 79 years, with varying degrees of renal function were enrolled in two, prospective, open-label, phase I studies of intravenous ceftolozane/tazobactam. A total of 36 subjects were enrolled into cohorts based on degree of renal function: normal (n=11), mild impairment (n=6), moderate impairment (n=7), severe impairment (n=6), and ESRD on HD (n=6). To ensure subjects with ESRD were receiving effective HD, a target adequacy of HD calculated from the pre- and post-blood urea nitrogen ratios (Kt/V) of at least 1.2 for a minimum of 3 months prior to enrollment was required. Renal impairment groups were classified according to the 2010 U.S.

[7] = intravenous, 750 mg, ESRD on HD, second infusion Day 4, start of infusion to end of dialysis
[8] = iv, 750 mg, ESRD on HD, Day 1 IV infusion of 750 mg (non-hemodialysis phase)
[9] = iv, 750 mg, ESRD on HD, second IV infusion of 750 mg on Day 4 (during HD)
[10] = iv, 750 mg, severe renal impairment, single IV 1-hour infusion of 750 mg ceftolozane/tazobactam
[11] = moderate renal impairment, single 1,000 mg/500 mg dose
[12] = severe renal impairment, single 500 mg/250 mg dose

In the case of `Cn1c(N)c(NC(=O)NCCN)c[n+]1CC1=C(C(=O)[O-])N2C(=O)[C@@H](NC(=O)/C(=N\OC(C)(C)C(=O)O)c3nsc(N)n3)[C@H]2SC1` [Ceftolozane, (6R,7R)-3-[(5-amino-4-{[(2-aminoethyl)carbamoyl]amino}-1-methyl-1H-pyrazol-2-ium-2-yl)methyl]-7-({(2Z)-2-(5-amino-1,2,4-thiadiazol-3-yl)-2-[(1-carboxy-1-methylethoxy)imino]acetyl}amino)-8-oxo-5-thia-1-azabicyclo[4.2.0]oct-2-ene-2-carboxylate], the Vd (clinical) is reported as 6 L, the clearance (clinical) is reported as 5.67 mL/min and the “increase of CL by HD” value (clinical) is reported as 60 fold. The “increase of Vc by HD” value (clinical) was 4.7 fold, the Vc ([1]; cIAI) was 18.2 L and the Vc ([1]; cUTI, at 74 kg body weight) was 13.8 L. The “between-subject variability (BSV) of CL” value ([1]; final population PK model) was 33.0%, the clearance ([1]; human, plasma, intravenous, patients with cIAI, at CrCL=109 mL/min, read-out: CL (converted)) was 104 mL/min and the “CL higher than that in healthy subjects” value ([1]; patients with cUTI and cIAI) was “about 20%”. For the same compound, the CL ([1]; patients with cUTI, at CrCL=109 mL/min) was 6.18 L/h, the “free-drug (f) % T>MIC associated with a 1-log10 CFU reduction from baseline” value (P. aeruginosa) was 32.2 and the “free-drug (f) % T>MIC associated with net bacterial stasis” value (P. aeruginosa) was 24.8. The “terminal elimination half-life (t½β)” value ([2]; healthy volunteers) was “approximately 2.5 hours”, the “Terminal elimination half-lives (t1/2)” value ([2]; patients with normal renal function) was “approximately 2.5 h” and the protein binding [3] was “approximately 20%”. For the same compound, the AUC(0-t) ([4]; intravenous, 750 mg, ESRD on HD, second infusion Day 4, approximately 6 hours from start of infusion to end of dialysis, read-out: AUClast, Mean (CV %)) was 87.5 µg·h/mL, the Cmax [4, 7] was 40900 ng/mL and the half-life [4, 7] was 1.25 h. It also gave a Tmax [4, 7] of 1 h, an AUC(0-t) ([4]; intravenous, 750 mg, subjects with ESRD, read-out: Exposure (AUC48h) After HD (Day 1), Median (Range)) of 903 µg·h/mL and an AUC(0-t) ([4]; intravenous, 750 mg, subjects with ESRD, read-out: Exposure (AUC48h) During HD (Day 3), Median (Range)) of 298 µg·h/mL. It also gave an AUC(0-inf) [4, 8] of 1680 µg·h/mL, a clearance [4, 8] of 6.67 mL/min and a Cmax [4, 8] of 44500 ng/mL. It also gave a Vd [4, 8] of 19.2 L, a half-life [4, 8] of 39.8 h and an AUC(0-t) ([4]; iv, 750 mg, ESRD on HD, Day 1 IV infusion of 750 mg (non-hemodialysis phase), through 48 hours, read-out: AUClast, Mean (CV %)) of 910 µg·h/mL. For the same compound, the Cmax [4, 9] was 40900 ng/mL, the half-life [4, 9] was 43.5 h and the AUC(0-t) ([4]; iv, 750 mg, ESRD on HD, second IV infusion of 750 mg on Day 4 (during HD), through 44 hours, read-out: AUClast, Mean (CV %)) was 304 µg·h/mL. The AUC(0-t) ([4]; iv, 750 mg, severe renal impairment, single IV 1-hour infusion of 750 mg ceftolozane/tazobactam, through 48 hours, read-out: AUClast, Mean (CV %)) was 511 µg·h/mL, the Cmax [4, 10] was 49900 ng/mL and the AUC(0-inf) [4, 10] was 537 µg·h/mL. For the same compound, the clearance [4, 10] was 16.7 mL/min, the Vd [4, 10] was 13.8 L and the half-life [4, 10] was 11.1 h. For the same compound, the Tmax ([4]; ESRD on HD, second IV infusion of 750 mg on Day 4 (during HD)) was 1 h, the “AUC48h Ratio (Day 3:1), Median (Range)” value ([4]; subjects with ESRD, during HD vs after HD) was 0.34 (0.26 − 0.48) and the “Percent Removed, Median (Range)” value ([4]; subjects with ESRD, hemodialysis) was 66 (52 − 74) Percent. For the same compound, the clearance ([5]; human, plasma, intravenous, after a single dose of CXA-201, read-out: plasma CL) was 68.3 to 112 mL/min, the CL renal ([5]; human, urine and plasma, intravenous, after a single dose of CXA-201, read-out: renal clearance) was 56.8 to 112 mL/min and the “excreted in the urine as unchanged parent drug” value ([5]; single 1.5 g intravenous dose of CXA-201, healthy male adults) was “greater than 95%”. The extraction ratio ([6]; 1 h after the start of HD) was 42%, the extraction ratio ([6]; 2 h after the start of HD) was 48% and the “median Cmax in plasma higher compared with normal renal function, dose normalized” value ([6]; ESRD during non-HD) was 1.2 fold. The “average extraction ratio during HD” value ([6]; ESRD on HD) was 46%, the “median RDHD (percent reduction in plasma concentration during HD)” value ([6]; ESRD on HD) was 92% and the “reduction in overall exposure based on the AUC0-∞ on and off HD” value ([6]; ESRD on HD) was “approximately 66%”. The “plasma concentration rebound peak following HD, of the original Cmax” value ([6]; ESRD, period following HD) was “approximately 17%”, the extraction ratio ([6]; at end of HD) was 47% and the clearance ([6]; both sexes, human, dialysate and plasma, intravenous, ESRD on HD, read-out: median dialysis clearance (CLD) (converted)) was 95.8 mL/min. For the same compound, the half-life ([6]; both sexes, human, plasma, intravenous, ESRD on HD, read-out: t1/2 during the HD period (converted)) was 1.13 h, the “increase of median AUC0-∞ compared with normal renal function” value [6, 11] was 2.5 fold and the “increase of median Cmax compared with normal renal function” value [6, 11] was 1.2 fold. The “increase of median AUC0-∞ compared with dose-normalized exposure in normal renal function” value [6, 12] was 4.4 fold and the “increase of median Cmax compared with dose-normalized exposure in normal renal function” value [6, 12] was 1.3 fold.
